Data: US20110306568A1, “COMPOSITION CONTAINING GLUCOSYLGLYCEROL” (priority 2008, published 2011)

Columns and labels:
Format in all cases: cell-based
[1] = tested on: E. coli DSM 1576; experiment: Viable count of E. coli DSM 1576 in aqueous glucosylglycerol solutions with 5% w/w glucose; details: for Colony-forming units (CFU/g): 5% w/w glucose, aqueous
[2] = tested on: Aspergillus niger; experiment: Viable count of mold Aspergillus niger in aqueous glucosylglycerol solution with 3.5% w/w glucose; details: A. niger; for Colony-forming units (CFU/g): 50% w/w glucosylglycerol, 3.5% w/w glucose, aqueous
Source text: (§1) In addition, a another test was analogously conducted with mold Aspergillus niger and yeast fungi Candida albicans , with an aqueous solution containing 50% w/w of 2-O-α-D glucosylglycerol and 3.5% w/w of glucose being used in this case.

[3] = tested on: Candida albicans; experiment: Viable count of yeast fungi Candida albicans in aqueous glucosylglycerol solution with 3.5% w/w glucose; details: C. albicans; for Colony-forming units (CFU/g): 50% w/w glucosylglycerol, 3.5% w/w glucose, aqueous
Source text: as §1

[4] = glucosylglycerol of high concentration

OCC(CO)O[C@H]1O[C@H](CO)[C@@H](O)[C@H](O)[C@H]1O [Glucosylglycerol, 2-O-α-D-glucosylglycerol]
Colony-forming units (CFU/g) ([1]; 20% w/w glucosylglycerol, 0 days): 300,000 CFU/g
Colony-forming units (CFU/g) ([1]; 20% w/w glucosylglycerol, 2 days): 280,000 CFU/g
Colony-forming units (CFU/g) ([1]; 20% w/w glucosylglycerol, 7 days): 100,000 CFU/g
Colony-forming units (CFU/g) ([1]; 20% w/w glucosylglycerol, 14 days): 5,000 CFU/g
Colony-forming units (CFU/g) ([1]; 20% w/w glucosylglycerol, 21 days): <100 CFU/g
Colony-forming units (CFU/g) ([1]; 20% w/w glucosylglycerol, 28 days): <100 CFU/g
Colony-forming units (CFU/g) ([1]; 30% w/w glucosylglycerol, 0 days): 300,000 CFU/g
Colony-forming units (CFU/g) ([1]; 30% w/w glucosylglycerol, 2 days): 130,000 CFU/g
Colony-forming units (CFU/g) ([1]; 30% w/w glucosylglycerol, 7 days): <1,000 CFU/g
Colony-forming units (CFU/g) ([1]; 30% w/w glucosylglycerol, 14 days): <100 CFU/g
Colony-forming units (CFU/g) ([1]; 30% w/w glucosylglycerol, 21 days): <100 CFU/g
Colony-forming units (CFU/g) ([1]; 30% w/w glucosylglycerol, 28 days): <100 CFU/g
Colony-forming units (CFU/g) ([1]; 50% w/w glucosylglycerol, 0 days): 300,000 CFU/g
Colony-forming units (CFU/g) ([1]; 50% w/w glucosylglycerol, 2 days): 150,000 CFU/g
Colony-forming units (CFU/g) ([1]; 50% w/w glucosylglycerol, 7 days): <1,000 CFU/g
Colony-forming units (CFU/g) ([1]; 50% w/w glucosylglycerol, 14 days): <100 CFU/g
Colony-forming units (CFU/g) ([1]; 50% w/w glucosylglycerol, 21 days): <100 CFU/g
Colony-forming units (CFU/g) ([1]; 50% w/w glucosylglycerol, 28 days): <100 CFU/g
bactericidal effect [1, 4]: highly bactericidal effects
Colony-forming units (CFU/g) ([2]; 0 days): 750,000 CFU/g
Colony-forming units (CFU/g) ([2]; 2 days): 350,000 CFU/g
Colony-forming units (CFU/g) ([2]; 7 days): 200,000 CFU/g
Colony-forming units (CFU/g) ([2]; 14 days): 170,000 CFU/g
Colony-forming units (CFU/g) ([2]; 21 days): 160,000 CFU/g
Colony-forming units (CFU/g) ([2]; 28 days): 12,000 CFU/g
fungicidal effect [2, 4]: fungicidal effects
Colony-forming units (CFU/g) ([3]; 0 days): 750,000 CFU/g
Colony-forming units (CFU/g) ([3]; 2 days): 320,000 CFU/g
Colony-forming units (CFU/g) ([3]; 7 days): 200,000 CFU/g
Colony-forming units (CFU/g) ([3]; 14 days): 190,000 CFU/g
Colony-forming units (CFU/g) ([3]; 21 days): 120,000 CFU/g
Colony-forming units (CFU/g) ([3]; 28 days): 45,000 CFU/g
fungicidal effect [3, 4]: fungicidal effects
